These results are taken from patent US8304002B2, “Fenugreek extract for treating human and animal diseases involving flagellate parasites” (Setubio S.A.S., priority 2008, dated 2012).

Data set [1] deals with bacterial flora associated with H. meleagridis. The data set can be described thus: Effect on the bacterial flora associated with H. meleagridis. It is filed as cell-based. Particulars: 48 h of culture, FIG. 4. The method, then: An aliquot of H. meleagridis culture was taken. Four serial dilutions (10^-4 to 10^-7) were made in liquid tryptone soya medium. 20 μL of each dilution was spread onto tryptone soya agar medium. Incubation at 37° C. overnight. The effects of different concentrations of […] and of DMZ on the associated bacterial flora after 48 h of culture were then compared. The results are expressed in number of bacteria per mL (FIG. 4). The extract […] was histomonicidal from 1 mg/mL. It had no effect on the associated bacterial flora. Dimetridazole is histomonicidal from 25 μg/mL at 72 h. On the other hand it is bactericidal from 400 μg/mL.

In data set [2] the test system is Histomonas meleagridis. Description: Regrowth of H. meleagridis after transfer into fresh medium following 72 h treatment. Type of data set: cell-based. Here is the method:
After 72 h of treatment with […] and DMZ, the parasites were put into fresh medium for 96 h to analyse the histomonicidal effect (FIG. 5).

Data set [3] deals with Histomonas meleagridis. Description: Anti-Histomonas activity: in vitro culture with parasite counts. It is filed as cell-based. The method, then: The strain of H. meleagridis was isolated from the caeca of turkeys experimentally infested with eggs of the H. gallinarum worm. The parasites were cultured at 39° C. in sealed glass tubes containing 3 mL of supplemented M199 medium. They were transferred twice a week. To do this, 80 μL of preculture were added to 3 mL of fresh medium previously heated in a water bath to 39° C. Counting was performed in a Malassez counting chamber after staining with 0.4% trypan blue. The 100 fields of the chamber were counted. […] was tested at different concentrations. A parasite count was performed three times after 72 h incubation. A negative control was included by replacing the extract with the solvent only (sterile water). To study the dose-dependent effect, each test was performed in triplicate, with different concentrations, counting the parasites at 24 h, 48 h and 72 h. A negative control was included by replacing the extract with the solvent only.

The test system of the next data set is MRC5 cells. Description: Cytotoxicity test (protein assay, SRB) on MRC5 cells. Type of data set: cell-based, human. The conditions noted are these: MRC5, 100 μg/mL to 2 mg/mL, 24 h and 48 h. The method, then:
The MRC5 cells (primary human foetal lung fibroblasts) were cultured in 25 or 75 cm^2 dishes in supplemented MEM (Minimum Essential Medium, Life Technologies Gibco), in a chamber at 37° C. and % CO2. 500 mL of MEM was supplemented with foetal calf serum (10% final), glutamine 2 mM (5 mL), antibiotics (5 mL penicillin/streptomycin i.e. […], 0.5 mL ampicillin i.e. 10 μg/ml, 0.25 mL gentamicin i.e. 25 μg/mL) and fungicides (5 mL fungizone i.e. 2.5 μg/mL). When the cells reached confluence, they were trypsinised and transferred into 96-well plates at […]. They were then incubated at 37° C., 5% CO2 for 24 h before starting the test. The plates were duplicated for a protein assay after 24 and 48 h. This test consists of culturing the cells in the presence of extracts, then precipitating total proteins to determine their concentration. The MRC5 cells were put into contact with 200 μL of supplemented MEM containing different concentrations of the extracts to be tested. […] Each dilution was tested in triplicate to produce a mean. Two controls were used: • a negative control: cells in the supplemented MEM only • a positive control: cells in the presence of a mixture of the supplemented MEM and 50% DMSO The plates were then incubated at 37° C., 5% CO2 for 24 or 48 h. […] The contents of the wells were homogenised and the optical density read at 490 nm. […]

[4] abbreviates: 25 μg/mL for 72 h, then fresh medium 96 h.

For the compound `Cc1ncc([N+](=O)[O-])n1C` [DMZ, dimetridazole], in data set [1], the “concentration from which bactericidal” value was at least 400 µg/mL. Besides, the “regrowth of the culture” value with Histomonas meleagridis [2] (12.5 μg/mL for 72 h, then fresh medium 96 h) was “regrowth”; in the data set on Histomonas meleagridis [2] (setting [4]), “regrowth”; in the data set on Histomonas meleagridis [2] (400 μg/mL for 72 h, then fresh medium 96 h) it was “No regrowth”; with Histomonas meleagridis [2] (1 mg/mL for 72 h, then fresh medium 96 h), “No regrowth”. In the data set with Histomonas meleagridis [2] (setting [4]), the “growth relative to the control after transfer” value is recorded as “about 30%”. Further, in the data set on Histomonas meleagridis [2] (72 h treatment, then fresh medium 96 h), the “concentration from which histomonicidal (confirmed by regrowth)” value was at least 400 µg/mL. In the data set on Histomonas meleagridis [2] (at 25 μg/mL), the “histomonicidal or histomonostatic (confirmed by regrowth)” value is listed as “histomonostatic”. Further, the “effect on growth of H. meleagridis (in words)” value in the data set with Histomonas meleagridis [3] (FIG. 3, tested in parallel S520/DMZ) was “parasitostatic”. Also, in the data set on Histomonas meleagridis [3] (at 72 h), the “concentration from which histomonicidal” value was at least 25 µg/mL. Moreover, the “concentration at which parasiticidal” value in the data set on Histomonas meleagridis [3] (growth of H. meleagridis, FIG. 3) was found to be 25 µg/mL.

For the compound `O=C(N/N=C/c1ccc([N+](=O)[O-])o1)c1cc([N+](=O)[O-])cc([N+](=O)[O-])c1O` [Nifursol], the “cytotoxicity for human cells in culture” value in the data set on MRC5 cells is reported as “not toxic”. In addition, the inhibition at 2000 µg/mL in the data set on Histomonas meleagridis [3] (Histomonas meleagridis, 2 mg/mL, at 72 h, read-out: inhibition of proliferation of H. meleagridis) amounted to 38%. Further, the “effect on the proliferation of H. meleagridis” value in the data set on Histomonas meleagridis [3] (at 2 mg/mL) was “slightly histomonostatic”.
